US10538496B2, “Methods using HDAC11 inhibitors” (FORMA Therapeutics, Inc., priority 2016, dated 2020)

Assays:
Assay type in all cases: cell-based
[1] = test system: STAT3 and STAT5 phosphorylation in HEL 92.1.7 cells; experiment: STAT3 and STAT5 phosphorylation western blot assay
Description: The effects of selective HDAC11 inhibition on STAT3 and STAT3 phosphorylation in HEL 92.1.7 cells were determined by western blot. Cells were treated with HDAC11 inhibitors and lysed in RIPA buffer (Sigma-Aldrich, St. Louis, Mo.) supplemented with protease inhibitors (Roche, Basel, Switzerland) and phosphatase inhibitors (Sigma P5726). Protein concentrations were determined with Pierce BCA protein assay kit (Thermo Fisher Scientific, Waltham, Mass.). Proteins were separated on a 4-12% Bis-Tris gradient electrophoresis gel (Life Technologies, Carlsbad, Calif.) and transferred onto a nitrocellulose membrane. The membrane was then blocked in either 5% nonfat dry milk or 5% BSA followed by incubation with primary antibodies at 4° C. overnight. Antibodies for p-STAT5 (Abcam 32364), STAT5 (Cell Signaling 9358), p-STAT3 (Cell Signaling 9145) and STAT3 (Cell Signaling 9139) were used. β-actin was used as loading control.

[2] = test system: HEL 92.1.7 cells; experiment: Cell proliferation assay (CCK8); settings: 48h
Description: (§1) This example describes inhibition of in vitro cell proliferation with exemplary HDAC11 inhibitors. The effects of selective HDAC11 inhibitors on cell proliferation were measured in cell lines containing the MPN-associated mutations MPL W515L (Ba/F3 MPL W515L) and JAK2 V617F (Ba/F3 JAK2 V617F, HEL 92.1.7, SET-2). HEL 92.1.7 and SET-2 cells were purchased from the ATCC and DSMZ, respectively. Ba/F3 cells overexpressing either MPLW515L or JAK2V617F, which were cytokine independent, were generated by transforming Ba/F3 cells with retroviruses overexpressing either MPL W515L or JAK2V617F. For survival assays, cells were seeded in 96-well plates at the density of 0.1 million/ml with addition of indicated compounds and incubated at 37° C. for 48h. CCK8 solution (Dojindo, Rockville, Md.) was added and absorbance at 450 nm was measured after 3 hours of incubation. Readings were normalized to dimethylsulfoxide (DMSO)-treated wells.

[3] = test system: SET-2 cells; experiment: Cell proliferation assay (CCK8); settings: Ruxolitinib-resistant SET-2
Description: as §1

[4] = test system: H1650 cells co-cultured with primary CAFs from human lung cancer; experiment: Co-culture assay with cancer cells and cancer associated fibroblasts
Description: The effects of selective HDAC11 inhibition on cancer cells and cancer associated fibroblasts (CAFs) were determined in a co-culture assay. The cells were first trypsinized and collected in serum containing medium and were further incubated in same media at 37° C. for 15-20 min for recovery. The cells were resuspended in serum free media at 1×10^6 cells/ml density and stained with 10 uM of cytotracker green (Cancer associated fibroblasts) or cytotracker red dye (H1650 cells) (Life Technologies Inc) at 37° C. for 90 min. The stained cells were washed twice with serum free medium to remove excess dye at 1500 rpm for 5 min. The cytotracker green stained CAFs were mixed with cytotracker red stained H1650 cells in 1:1 ratio and grown in 96-well tissue culture plate overnight. The HDAC11 inhibitors were then added to the mixed adhered cells (CAFs+H1650) at appropriate concentrations. The images were taken on Day 0 and after every 24 hours using EVOS FL microscope system and EVOS software (Life Technologies Inc).

[5] = test system: Ba/F3 JAK2 V617F cells; experiment: Cell proliferation assay (CCK8); settings: Mus musculus, BaF3; Ba/F3 JAK2V617F, 48h; read-out: IC50, inhibition of proliferation
Description: as §1

[6] = test system: Ba/F3 MPL W515L cells; experiment: Cell proliferation assay (CCK8); settings: Mus musculus, BaF3; Ba/F3 MPLW515L, 48h; read-out: IC50, inhibition of proliferation
Description: as §1

[7] = test system: H1650 SP cells; experiment: Tube formation assay with stem-like side population NSCLC cells; settings: on Matrigel, overnight
Description: The angiogenic tubule assay was performed with the sorted side population cells to analyze vascular mimicry. The H1650 side population cells were sorted as mentioned above and they were further grown on Matrigel (BD Biosciences) to form angiogenic tubule-like structures. 100 μl of thawed Matrigel was layered on the wells of 96-well tissue culture plates and allowed to polymerize at 37° C. for 30 min. Sorted H1650 SP cells were layered (12000 cells/100 μl of Matrigel) on the polymerized matrigel and incubated overnight at 37° C. Tubule formation was assessed under bright field using EVOS FL microscope system and images were acquired with EVOS software (Life Technologies Inc., USA). For the treatment with HDAC11 inhibitors, appropriate concentrations of the compounds were added to the cells when they were seeded on Matrigel for the tubule formation assay.

[8] = test system: A549 cells; experiment: Cell migration (scratch) assay
Description: The effects of HDAC11 inhibition on cell migration were determined using a scratch assay. A549 cells (120,000-150,000 cells/2 ml/well) were grown in 6-well tissue culture plates (BD Biosciences). A scratch was made using a sterile 2 μl pipette tip in each well. The 10% FBS containing medium was added to the wells after a wash with DPBS. To assess the effect of the HDAC11 inhibitors on cell migration, the inhibitors were added in the medium at appropriate concentrations. The cells were further incubated at 37° C. The images were taken on Day 0 and after every 24 hours using EVOS FL microscope system and EVOS software (Life Technologies Inc) and the cell migration was compared to the Day 0 of treatment.

Row | IC50 [5] [µM] | IC50 [6] [µM] | Compound | STAT3 phosphorylation [1] | STAT5 phosphorylation [1] | growth of the HEL 92.1.7 cell line [2] | growth of a SET-2 cell line generated to be Ruxolitinib-resistant [3] | growth of H1650 cells co-cultured with primary CAFs ([4]; 1:1 co-culture) | effects on CAFs ([4]; 1:1 co-culture with H1650 cells) | tubule formation by H1650 SP cells [7] | A549 cell migration [8]
1 | – | – | O=C(NO)c1cccc(Nc2nc3cc(Cl)c(Cl)cc3o2)c1 [HDTK010, 3-((5,6-dichlorobenzo[d]oxazol-2-yl)amino)-N-hydroxybenzamide] | inhibited | inhibited | inhibited the growth | inhibited the growth | – | – | – | –
2 | 1 to 10 | 1 to 10 | O=C(NO)c1cccc2c1C[C@]1(CCN(Cc3ccc(Cl)c(C(F)(F)F)c3)C1=O)C2 [HDTK054, (S)-1′-(4-chloro-3-(trifluoromethyl)benzyl)-N-hydroxy-2′-oxo-1,3-dihydrospiro[indene-2,3′-pyrrolidine]-4-carboxamide] | – | – | – | – | inhibit the growth | minimal effects | inhibited tubule formation | impaired A549 cell migration
